SMILES | melting point
CCOc1ccc2[nH]cc(C(=O)NCc3ccc(CN(C)Cc4ccccc4)cc3)c(=O)c2c1 [compound 98, N-{4-[(N-Benzyl-N-methylamino)methyl]benzyl} 6-ethoxy-4-oxo-1,4-dihydroquinoline-3-carboxamide] | 129 to 131 °C
CCOc1ccc2[nH]cc(C(=O)NCc3ccc(CN(C)CCc4ccccc4)cc3)c(=O)c2c1 [compound 99, N-{4-[(N-Methyl-N-phenethylamino)methyl]benzyl} 6-ethoxy-4-oxo-1,4-dihydroquinoline-3-carboxamide] | 137 to 139 °C
CCOc1ccc2[nH]cc(C(=O)NCc3ccc(CN4CCCCC4)cc3)c(=O)c2c1 [compound 102, N-{4-[(1-Piperidinyl)methyl]benzyl} 6-ethoxy-4-oxo-1,4-dihydroquinoline-3-carboxamide] | 172 to 174 °C
CCOc1ccc2[nH]cc(C(=O)NCc3ccc(CN4CCCC4)cc3)c(=O)c2c1 [compound 103, N-{4-[(1-Pyrrolidinyl)methyl]benzyl} 6-ethoxy-4-oxo-1,4-dihydroquinoline-3-carboxamide] | 168 to 171 °C
COCc1ccc2[nH]cc(C(=O)NCc3cccc(CN4CCOCC4)c3)c(=O)c2c1 [compound 105, N-{3-[(4-Morpholinyl)methyl]benzyl} 6-methoxymethyl-4-oxo-1,4-dihydroquinoline-3-carboxamide] | 151 to 153 °C

Next, values leading:

melting point | SMILES
144 to 146 °C | CCOc1ccc2[nH]cc(C(=O)NCc3cccc(CN(C)Cc4ccccc4)c3)c(=O)c2c1 [compound 108, N-{3-[(N-Benzyl-N-methylamino)methyl]benzyl}-6-ethoxy-4-oxo-1,4-dihydroquinoline-3-carboxamide]
173 to 177 °C | CCOc1ccc2[nH]cc(C(=O)NCc3cccc(CN4CCOCC4)c3)c(=O)c2c1 [compound 117, N-[3-(4-Morpholinylmethyl)benzyl]-6-ethoxy-4-oxo-1,4-dihydroquinoline-3-carboxamide]
140 to 144 °C | Cc1ccc2[nH]cc(C(=O)NCc3cccc(CN4CCOCC4)c3)c(=O)c2c1 [compound 127, N-[3-(4-Morpholinylmethyl)benzyl]-6-methyl-4-oxo-1,4-dihydroquinoline-3-carboxamide]
186 to 188 °C | COc1ccc2[nH]cc(C(=O)NCc3cccc(CN(C)Cc4ccccc4)c3)c(=O)c2c1 [compound 130, N-[3-(N-Benzyl-N-methylaminomethyl)benzyl]-6-methoxy-4-oxo-1,4-dihydroquinoline-3-carboxamide]
